Each structure is given as a SMILES string.

We go through 7 molecules from ChEMBL document CHEMBL5365448, “Development of Long-Acting Dipeptidyl Peptidase-4 Inhibitors: Structural Evolution and Long-Acting Determinants” (J Med Chem, 2023).

Series [1] can be described thus: Oral Bioavailability in rat. It counts as ADME, organism-based. The conditions noted are these: in vivo.
Series [2] in a line: Half life in Sprague-Dawley rat at 5 mg/kg, po measured at 0.083 to […] by Liquid chromatography coupled with tandem mass spectrometry analysis. It counts as ADME, organism-based. Conditions: in vivo, time 0.083-0.25 hrs.
Series [3] in a line: Oral bioavailability in Sprague-Dawley rat at 5 mg/kg measured at 0.083 to […] by Liquid chromatography coupled with tandem mass spectrometry analysis. It counts as ADME, organism-based. The conditions noted are these: in vivo, time 0.083-0.25 hrs.
A short description of series [4]: Half life in rat. The conditions noted are these: in vivo. Type of series: ADME.
Series [5] is described as follows: Half life in dog at 0.5 mg/kg, iv measured after 0.083 hrs by liquid chromatography tandem mass spectrometry analysis. Type of series: ADME, organism-based, Canis lupus familiaris. The conditions noted are these: in vivo.
A short description of series [6]: Half life in rat at 1 mg/kg, iv measured after 0.083 hrs by liquid chromatography tandem mass spectrometry analysis. Type of series: ADME, organism-based. Conditions: in vivo.
Series [7] is described as follows: Oral bioavailability in rat at 2 mg/kg measured at 0.25 to 168 hrs by liquid chromatography tandem mass spectrometry analysis. The conditions noted are these: in vivo, time 0.25-168 hrs. It counts as ADME, organism-based.
Series [8] can be described thus: Clearance in rat at 1 mg/kg, iv measured after 0.083 hrs by liquid chromatography tandem mass spectrometry analysis. It counts as ADME, organism-based. The conditions noted are these: in vivo.
Series [9] is described as follows: Half life in mouse at 1 mg/kg, iv measured after 0.083 hrs by liquid chromatography tandem mass spectrometry analysis. Conditions: in vivo. Type of series: ADME, organism-based.
Series [10] is described as follows: Half life in monkey at 0.5 mg/kg, iv measured after 0.083 hrs by liquid chromatography tandem mass spectrometry analysis. It counts as ADME, organism-based, Macaca mulatta. Conditions: rhesus monkey, in vivo.
Series [11] in a line: Cmax in rat at 10 mg/kg, po measured after 24 hrs by LC/MS/MS analysis. Type of series: ADME, organism-based. The arrangement: dose 10 mg/kg, time 24 hrs, route po. Conditions: in vivo.
The nature of series [12]: Cmax in dog at 3 mg/kg, po measured after 24 hrs by LC/MS/MS analysis. The arrangement: time 24 hrs, dose 3 mg/kg, route po. It counts as ADME, organism-based, Canis lupus familiaris. Conditions: in vivo.
Series [13] in a line: Cmax in Cynomolgus monkey at 10 mg/kg, po measured after 24 hrs by LC/MS/MS analysis. The conditions noted are these: in vivo. It counts as ADME, organism-based, Macaca fascicularis. More on the design: dose 10 mg/kg, time 24 hrs, route po.
The nature of series [14]: Tmax in rat at 10 mg/kg, po measured after 24 hrs by LC/MS/MS analysis. The conditions noted are these: in vivo. Type of series: ADME, organism-based.
A short description of series [15]: Tmax in dog at 3 mg/kg, po measured after 24 hrs by LC/MS/MS analysis. It counts as ADME, organism-based, Canis lupus familiaris. Conditions: in vivo.
A short description of series [16]: Tmax in Cynomolgus monkey at 10 mg/kg, po measured after 24 hrs by LC/MS/MS analysis. Type of series: ADME, organism-based, Macaca fascicularis. Conditions: in vivo.
Series [17] in a line: AUC in rat at 10 mg/kg, po measured after 24 hrs by LC/MS/MS analysis. More on the design: dose 10 mg/kg, time 24 hrs, route po. Type of series: ADME, organism-based. Conditions: in vivo.
Series [18] is described as follows: AUC in rat at 1 mg/kg, iv measured after 24 hrs by LC/MS/MS analysis. It counts as ADME, organism-based. The arrangement: dose 1 mg/kg, time 24 hrs, route iv. The conditions noted are these: in vivo.
A short description of series [19]: AUC in dog at 3 mg/kg, po measured after 24 hrs by LC/MS/MS analysis. Conditions: in vivo. More on the design: dose 3 mg/kg, time 24 hrs, route po. It counts as ADME, organism-based, Canis lupus familiaris.
Series [20] is described as follows: AUC in Cynomolgus monkey at 10 mg/kg, po measured after 24 hrs by LC/MS/MS analysis. Type of series: ADME, organism-based, Macaca fascicularis. The arrangement: dose 10 mg/kg, time 24 hrs, route po. The conditions noted are these: in vivo.
Series [21] can be described thus: Half life in rat at 10 mg/kg, po measured after 24 hrs by LC/MS/MS analysis. It counts as ADME, organism-based. The conditions noted are these: in vivo.
Series [22] is described as follows: Half life in rat at 1 mg/kg, iv measured after 24 hrs by LC/MS/MS analysis. Type of series: ADME, organism-based. The conditions noted are these: in vivo.
Series [23] can be described thus: Half life in dog at 3 mg/kg, po measured after 24 hrs by LC/MS/MS analysis. It counts as ADME, organism-based, Canis lupus familiaris. The conditions noted are these: in vivo.
The nature of series [24]: Half life in Cynomolgus monkey at 10 mg/kg, po measured after 24 hrs by LC/MS/MS analysis. Conditions: in vivo. It counts as ADME, organism-based, Macaca fascicularis.
The nature of series [25]: Clearance in rat at 1 mg/kg, iv measured after 24 hrs by LC/MS/MS analysis. Conditions: in vivo. It counts as ADME, organism-based.
A short description of series [26]: Clearance in dog at 3 mg/kg, po measured after 24 hrs by LC/MS/MS analysis. Conditions: in vivo. It counts as ADME, organism-based, Canis lupus familiaris.
Series [27] is described as follows: Clearance in Cynomolgus monkey at 10 mg/kg, po measured after 24 hrs by LC/MS/MS analysis. It counts as ADME, organism-based, Macaca fascicularis. The conditions noted are these: in vivo.
A short description of series [28]: Volume of distribution in rat at 1 mg/kg, iv measured after 24 hrs by LC/MS/MS analysis. It counts as ADME, organism-based. Conditions: in vivo.
Series [29] in a line: Volume of distribution in dog at 3 mg/kg, po measured after 24 hrs by LC/MS/MS analysis. The conditions noted are these: in vivo. It counts as ADME, organism-based, Canis lupus familiaris.
The nature of series [30]: Volume of distribution in Cynomolgus monkey at 10 mg/kg, po measured after 24 hrs by LC/MS/MS analysis. It counts as ADME, organism-based, Macaca fascicularis. Conditions: in vivo.
Series [31] is described as follows: Oral bioavailability in rat at 10 mg/kg measured after 24 hrs by LC/MS/MS analysis. Type of series: ADME, organism-based. Conditions: in vivo.
Series [32] in a line: Oral bioavailability in rat at 1 mg/kg measured after 24 hrs by LC/MS/MS analysis. It counts as ADME, organism-based. Conditions: in vivo.
Series [33] is described as follows: Oral bioavailability in dog at 3 mg/kg measured after 24 hrs by LC/MS/MS analysis. Type of series: ADME, organism-based, Canis lupus familiaris. Conditions: in vivo.
Series [34] in a line: Oral bioavailability in Cynomolgus monkey at 10 mg/kg measured after 24 hrs by LC/MS/MS analysis. It counts as ADME, organism-based, Macaca fascicularis. The conditions noted are these: in vivo.
A short description of series [35]: Cmax in iv dosed rat. The arrangement: route iv. Conditions: in vivo. Type of series: ADME, organism-based.
Series [36] in a line: Tmax in iv dosed rat. Type of series: ADME, organism-based. The conditions noted are these: in vivo.
A short description of series [37]: AUC in iv dosed rat. Type of series: ADME, organism-based. More on the design: route iv. Conditions: in vivo.
Series [38] is described as follows: Half life in iv dosed rat. The conditions noted are these: in vivo. Type of series: ADME, organism-based.
The nature of series [39]: Bioavilability in iv dosed rat. Type of series: ADME, organism-based. The conditions noted are these: in vivo.

As a reminder, the bioavailability is the share of a dose that reaches the circulation, judged against a reference dose that is usually intravenous. In series [1], `CS(=O)(=O)Nc1cccc(NC(=O)CN2CCN(C(=O)C[C@H](N)Cc3ccccc3F)[C@H](Cc3ccccc3)C2)c1` registered a bioavailability of less than 1%.

One may read the half-life as how long it takes for the measured level to halve. Molecule `N#Cc1ccc(F)cc1Cn1c(N2CCC[C@@H](N)C2)nc2cc(-c3cccnc3)sc2c1=O` showed a half-life in series [2] of 16.4 h. This molecule showed a bioavailability in series [3] of 94%.

The molecule `N[C@@H](CC(=O)N1CCSC1)Cc1cc(F)c(F)cc1F` showed a half-life in series [4] of 1.1 h. In [1], this molecule came in with a bioavailability of 3%.

In general, clearance refers to a measure of how efficiently the substance is removed, as volume per time. With `N[C@H]1C[C@@H](N2CC3=C(C2)CS(=O)(=O)C3)CO[C@@H]1c1cc(F)ccc1F`, the half-life in series [5] was 52.8 h; in series [6], 28 h; in series [9], 44.4 h; in [10], 61.1 h. For the same molecule, the bioavailability in series [7] came out at 91%. In series [8], this molecule had a clearance of 19 mL/min/kg.

A word on the Cmax: it is the peak of the concentration-time curve. For orientation: Tmax means the time at which the peak concentration occurs. One may read the AUC as concentration integrated over time. As a reminder, the CL/F is the apparent clearance, not corrected for the fraction that reaches the circulation. On to `Cn1c(=O)cc(N2CCC[C@@H](N)C2)n(Cc2ccccc2C#N)c1=O` [ALOGLIPTIN], for which the values for the Cmax in series [11], in series [12] and in series [13] were 393 ng/mL, 447 ng/mL and 3210 ng/mL, respectively. In addition, the Tmax in series [14] worked out at 2.3 h; in [15], 0.4 h; in [16], 1 h. Further, the AUC at 24 h in series [17] stood at 1200 ng·h/mL; in [18] it was 260 ng·h/mL; in series [19], 1600 ng·h/mL; in series [20], 16600 ng·h/mL. Besides, the half-life in series [21] is 2.8 h; in [22], 1.4 h; in [23], 3 h; in series [24] it was 5.6 h. The molecule also gave a clearance in [25] of 49 mL/min/kg. The figures for the CL/F in series [26] and in series [27] were 23 mL/min/kg and 8.8 mL/min/kg, respectively. Moreover, the Vd in series [28] turned out to be 3.5 L/kg; in series [29], 3.5 L/kg; in [30], 2.6 L/kg. The bioavailability amounted to 45% in series [31], 86% in series [32], 68% in series [33] and 87% in series [34].

`CC#CCn1c(N2CCC[C@@H](N)C2)nc2c1c(=O)n(Cc1nc3cc(F)ccc3s1)c(=O)n2C` had a half-life in series [4] of 7.3 h.

With `N[C@H]1C[C@@H](N2Cc3nn4c(C(F)(F)F)cc(C(F)(F)F)nc4c3C2)CO[C@@H]1c1cc(F)ccc1F`, the half-life in series [4] and in [38] was 25.4 h in each case. In addition, the bioavailability in series [1] and in series [39] was 71% in each case. This molecule yielded a Cmax in series [35] of 119 ng/mL. The Tmax in series [36] came to 5.3 h. The same molecule registered an AUC in series [37] of 3700 ng·h/mL.
